Among the data in paper PMC10724237, “Identification of 5-HT2A receptor signaling pathways associated with psychedelic potential” (Nature Communications, 2023) are EC50, EMAX and pKi values, retold here.

In assay [1] the target is T1, 5-HT2A receptor (5-HT2AR) (Homo sapiens, UniProt P28223).
T1 construct: gene HTR2A; full-length receptor in HEK293T; co-expressed Galphaq-RLuc8/Gbeta1/Ggamma1-GFP2 for Gq dissociation; C-terminal RLuc8 fusion for beta-arrestin2 recruitment
It is filed as cell-based.

The target of assay [2] is T2, 5-HT2C receptor (5-HT2CR) (Homo sapiens, UniProt P28335).
T2 construct: gene HTR2C; full-length receptor in HEK293T with Galphaq-RLuc8/Gbeta1/Ggamma1-GFP2
T2 sequence (P28335 33-458): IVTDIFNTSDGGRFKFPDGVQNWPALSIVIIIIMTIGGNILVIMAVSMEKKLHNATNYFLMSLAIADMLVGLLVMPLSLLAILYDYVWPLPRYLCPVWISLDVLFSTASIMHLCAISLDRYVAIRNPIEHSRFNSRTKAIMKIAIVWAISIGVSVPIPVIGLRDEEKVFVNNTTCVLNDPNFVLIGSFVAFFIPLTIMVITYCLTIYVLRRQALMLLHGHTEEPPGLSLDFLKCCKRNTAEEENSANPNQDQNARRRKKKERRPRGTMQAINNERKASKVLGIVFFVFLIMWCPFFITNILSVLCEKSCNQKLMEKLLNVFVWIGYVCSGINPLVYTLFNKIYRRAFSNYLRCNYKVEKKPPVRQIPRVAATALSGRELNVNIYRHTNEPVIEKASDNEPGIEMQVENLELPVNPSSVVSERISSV
The experiment in a line: Gq dissociation BRET2 in HEK293T. The class given is cell-based. The note with it: agonist; 37 °C, 60 min.

Assay [3] deals with T3, 5-HT2B receptor (5-HT2BR) (Homo sapiens, UniProt P41595).
T3 construct: gene HTR2B; full-length receptor in HEK293T with Galphaq-RLuc8/Gbeta1/Ggamma1-GFP2
T3 sequence (P41595 whole entry): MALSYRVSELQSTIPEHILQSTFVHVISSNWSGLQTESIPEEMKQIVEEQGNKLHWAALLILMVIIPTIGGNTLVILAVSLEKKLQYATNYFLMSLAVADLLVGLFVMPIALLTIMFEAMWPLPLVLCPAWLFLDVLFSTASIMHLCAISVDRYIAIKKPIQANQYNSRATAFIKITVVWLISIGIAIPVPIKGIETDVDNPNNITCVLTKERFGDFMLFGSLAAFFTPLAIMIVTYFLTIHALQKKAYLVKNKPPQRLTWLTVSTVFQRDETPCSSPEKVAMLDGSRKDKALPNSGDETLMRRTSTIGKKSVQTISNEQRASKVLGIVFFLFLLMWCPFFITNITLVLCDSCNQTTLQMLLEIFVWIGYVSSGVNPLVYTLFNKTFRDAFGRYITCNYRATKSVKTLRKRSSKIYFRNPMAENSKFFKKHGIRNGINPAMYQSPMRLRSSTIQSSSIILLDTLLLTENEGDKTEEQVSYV
Description: Gq dissociation BRET2 in HEK293T. It is filed as cell-based. The settings on record: partial agonist; 37 °C, 60 min.

The target of assay [4] is T1, 5-HT2A receptor (5-HT2AR). Description: competition radioligand binding (NIMH PDSP). The note with it: competitive.
In assay [5] the target is T1, 5-HT2A receptor (5-HT2AR). Description: Gq dissociation BRET2 in HEK293T. It is filed as cell-based. The settings on record: 37 °C.

Structures are written as SMILES. Where two headings read alike, the source gives them in different places.

T1 sequence (P28223 whole entry, the tested form may be a part): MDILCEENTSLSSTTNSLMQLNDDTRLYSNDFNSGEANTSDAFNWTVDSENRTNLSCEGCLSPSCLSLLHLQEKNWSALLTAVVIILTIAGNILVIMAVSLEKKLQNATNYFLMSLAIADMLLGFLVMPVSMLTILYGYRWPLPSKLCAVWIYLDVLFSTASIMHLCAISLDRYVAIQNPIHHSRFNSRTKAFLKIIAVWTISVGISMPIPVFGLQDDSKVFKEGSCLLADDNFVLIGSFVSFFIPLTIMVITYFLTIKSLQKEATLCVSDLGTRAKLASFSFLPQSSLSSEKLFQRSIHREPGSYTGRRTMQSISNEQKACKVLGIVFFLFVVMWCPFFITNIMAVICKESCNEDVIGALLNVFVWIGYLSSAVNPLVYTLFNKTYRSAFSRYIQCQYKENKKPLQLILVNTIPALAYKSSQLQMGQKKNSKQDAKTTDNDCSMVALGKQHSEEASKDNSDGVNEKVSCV

`COc1ccc2[nH]cc(CCN(C)C)c2c1` [5-MeO-DMT, 5-methoxy-N,N-dimethyltryptamine]: the EC50 entry in assay [1] (agonist, 37 °C, 60 min) is listed as “(E) Psilocin, (F) DMT, (G) 5-MeO-DMT”. For `CN(C)CCc1c[nH]c2ccccc12` [DMT], the EC50 result in assay [1] is “(E) Psilocin, (F) DMT, (G) 5-MeO-DMT”. With `CN(C)CCc1c[nH]c2cccc(O)c12` [Psilocin], in assay [1] (agonist, 37 °C, 60 min), the concentration for a half-maximal effect (EC50) entry was “(E) Psilocin, (F) DMT, (G) 5-MeO-DMT”.

Compound `COc1cc([N+](=O)[O-])c(OC)cc1CCNCc1ccccc1` [compound 2, 25N-NB] yielded an EC50 in assay [2] of 8.3 nM. For the same compound, the EMAX in assay [3] is 32 % of 5-HT. As to `COc1cc([N+](=O)[O-])c(OC)cc1CCNCc1ccccc1I` [compound 10, 25N-NBI], in assay [4], the pKi entry is “selectivity for 5-HT2AR over 5-HT2BR and 5-HT2CR in competitive binding studies”. Regarding `COc1cc(CCNCc2cccc3ccccc23)c(OC)cc1C` [compound 26, 25D-N1-Nap], in assay [5] (partial agonist), the EMAX is reported as 34.3 % of 5-HT. As for `COc1cc(OC)c(OC)cc1CCNCc1ccccc1OC` [compound 32], the EMAX in assay [5] (agonist) was 99.9 % of 5-HT. Regarding `COc1cc(OC)c(OC)cc1CCNCc1cccc(I)c1` [compound 34, 25O-NB-3-I], the EMAX in assay [5] (partial agonist) was 51.7 % of 5-HT.
